Measurements reported in patent US5635593A (priority 1995, dated 1997).
Entries after “also recorded” stand apart in the source; their conditions may differ. Peptide text beside a SMILES is read from it.

What was measured:
[1] = biological target: T1, BK1 receptor (Oryctolagus cuniculus, UniProt P48748); assay: rabbit aorta in vitro, reversal of des-Arg^9 -BK contraction; set-up: on rabbit aorta (BK1 -receptor) in vitro; from tissue; host or cells: rabbit aorta; details: negative log of molar concentration causing 50% reversal of des-Arg^9 -BK (10^-7 M) contraction
T1 sequence (P48748 1-352): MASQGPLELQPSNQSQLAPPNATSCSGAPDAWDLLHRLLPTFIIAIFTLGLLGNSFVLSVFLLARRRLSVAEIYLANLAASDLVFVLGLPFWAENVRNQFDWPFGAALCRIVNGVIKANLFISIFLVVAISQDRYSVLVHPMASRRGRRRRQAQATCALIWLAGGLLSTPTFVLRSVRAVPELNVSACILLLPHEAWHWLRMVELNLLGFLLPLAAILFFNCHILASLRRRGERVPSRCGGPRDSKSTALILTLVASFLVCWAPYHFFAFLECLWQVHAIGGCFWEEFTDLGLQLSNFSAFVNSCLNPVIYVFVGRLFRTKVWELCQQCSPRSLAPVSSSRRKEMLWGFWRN
Procedure: Each antagonist was then added, in a cumulative fashion, on top of the contraction and the negative log of the molar concentration of the antagonist causing a 50% reversal (IC50) of the […] measured.

[2] = biological target: T2, BK2 -receptor (Rattus norvegicus, UniProt P25023); assay: rat uterus (RU) in vitro, antagonism of BK; details: against BK
T2 construct: guinea-pig ileum (GPI), rat uterus (RU) and rabbit jugular vein (RJV); from tissue; host or cells: rat uterus
T2 sequence (P25023 1-396): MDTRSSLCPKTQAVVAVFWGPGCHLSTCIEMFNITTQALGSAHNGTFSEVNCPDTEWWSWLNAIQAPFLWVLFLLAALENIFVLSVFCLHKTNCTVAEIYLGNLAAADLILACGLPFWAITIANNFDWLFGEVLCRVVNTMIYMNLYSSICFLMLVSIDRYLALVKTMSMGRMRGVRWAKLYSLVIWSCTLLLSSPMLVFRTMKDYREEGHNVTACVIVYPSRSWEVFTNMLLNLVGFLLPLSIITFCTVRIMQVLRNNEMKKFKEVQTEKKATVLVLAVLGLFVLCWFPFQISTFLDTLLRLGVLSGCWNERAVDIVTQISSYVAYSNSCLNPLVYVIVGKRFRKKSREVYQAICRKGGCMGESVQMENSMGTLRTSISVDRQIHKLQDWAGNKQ
Procedure: Thus, in vitro studies were performed on standard assay systems, namely, guinea-pig ileum (GPI), rat uterus (RU) and rabbit jugular vein (RJV). […] The potency of each compound was assessed as a pA2 value according to the method of Arunlakshana & Schild, Br. J. Pharmacol. Chemother., 14:48-58 (1959). The pA2 can be defined as the negative logarithm of the molar concentration of the antagonist in the presence of which the potency of the agonist is reduced two-fold, i.e., twice the amount of agonist is required to produce a given response in the presence of, than in the absence of, the antagonist. A high potency of antagonism is indicated by a high pA2 value. i.e., a low concentration of antagonist is effective.
The percentage recovery (% Rec) was also determined for compounds with respect to each assay.
With respect to duration of activity, it is noted that after exposure to the highest concentration of antagonist, each tissue was washed extensively and then assessed for recovery from the antagonist effect.
Potency in the rat uterus assay was assessed as described above and pA2 values determined.

Structure (SMILES)	BK1 rabbit aorta IC50 [1]	pA2 rat uterus (BK2) [2]
CC(C)C[C@H](NC(=O)[C@@H](Cc1ccccc1)NC(=O)[C@H](CO)NC(=O)[C@H](Cc1ccccc1)NC(=O)CNC(=O)[C@@H]1C[C@@H](O)CN1C(=O)[C@@H]1CCCN1C(=O)[C@H](CCCNC(=N)N)NC(=O)[C@H](N)CCCNC(=N)N)C(=O)O [CP-0253, D R--R--P--J--G--F--S--D F--L] (HELM PEPTIDE1{[dR].R.P.[Hyp].G.F.S.[dF].L}$$$$V2.0; N-terminus and C-terminus assumed)	6.9 ± 0.1	–
CC(C)C[C@H](NC(=O)[C@@H](Cc1ccccc1)NC(=O)[C@H](CS)NC(=O)[C@H](Cc1ccccc1)NC(=O)CNC(=O)[C@@H]1C[C@@H](O)CN1C(=O)[C@@H]1CCCN1C(=O)[C@H](CCCNC(=N)N)NC(=O)[C@H](N)CCCNC(=N)N)C(=O)O [CP-0254, D R--R--P--J--G--F--C--D F--L] (HELM PEPTIDE1{[dR].R.P.[Hyp].G.F.C.[dF].L}$$$$V2.0; N-terminus and C-terminus assumed)	6.4 ± 0.1	–
N=C(N)NCCC[C@@H](N)C(=O)N[C@@H](CS)C(=O)N1CCC[C@H]1C(=O)N1C[C@H](O)C[C@H]1C(=O)NCC(=O)N[C@@H](Cc1ccccc1)C(=O)N[C@@H](CO)C(=O)N1Cc2ccccc2C[C@@H]1C(=O)N1[C@H](C(=O)O)C[C@@H]2CCCC[C@@H]21 [CP-0363, D R--C--P--J--G--F--S--D Tic--Oic] (HELM PEPTIDE1{[dR].C.P.[Hyp].G.F.S.[O=C([C@H]1Cc2ccccc2CN1[*:1])[*:2]].[O=C(O)[C@@H]1C[C@@H]2CCCC[C@@H]2N1[*:1]]}$$$$V2.0; N-terminus and C-terminus assumed)	6.2 ± 0.3	–
CC(C)C[C@H](NC(=O)[C@@H](Cc1ccccc1)NC(=O)[C@H](CO)NC(=O)[C@H](Cc1ccccc1)NC(=O)CNC(=O)[C@@H]1C[C@@H](O)CN1C(=O)[C@@H]1CCCN1C(=O)[C@H](CS)NC(=O)[C@H](N)CCCNC(=N)N)C(=O)O [CP-0376, D R--C--P--J--G--F--S--D F--L] (HELM PEPTIDE1{[dR].C.P.[Hyp].G.F.S.[dF].L}$$$$V2.0; N-terminus and C-terminus assumed)	4.9 ± 0.3	–
CC(C)C[C@H](NC(=O)[C@@H]1CCCN1C(=O)[C@H](CO)NC(=O)[C@H](Cc1ccccc1)NC(=O)CNC(=O)[C@@H]1C[C@@H](O)CN1C(=O)[C@@H]1CCCN1C(=O)[C@H](CSC1CC(=O)N(CCCCCCN2C(=O)CC(SC[C@H](NC(=O)[C@H](Cc3ccccc3)NC(=O)CNC(=O)[C@@H]3C[C@@H](O)CN3C(=O)[C@@H]3CCCN3C(=O)[C@H](CCCNC(=N)N)NC(=O)[C@H](N)CCCNC(=N)N)C(=O)N[C@H](Cc3ccccc3)C(=O)N[C@@H](CC(C)C)C(=O)N[C@@H](CCCNC(=N)N)C(=O)O)C2=O)C1=O)NC(=O)[C@@H](N)CCCCN)C(=O)O (stereo partly shown) [CP-0382] (HELM PEPTIDE1{[dR].R.P.[Hyp].G.F.C.[dF].L.R}|PEPTIDE2{K.C.P.[Hyp].G.F.S.P.L}|CHEM1{[O=C1CC([*:1])C(=O)N1CCCCCCN1C(=O)CC([*:2])C1=O]}$PEPTIDE1,CHEM1,7:R3-1:R1|PEPTIDE2,CHEM1,2:R3-1:R2$$$V2.0; N-terminus and C-terminus assumed)	–	Agonist; also recorded: substantial partial agonism
CC(C)C[C@H](NC(=O)[C@@H]1CCCN1C(=O)[C@H](CO)NC(=O)[C@H](Cc1ccccc1)NC(=O)CNC(=O)[C@@H]1C[C@@H](O)CN1C(=O)[C@@H]1CCCN1C(=O)[C@H](CCCCN)NC(=O)[C@H](N)CCCNC(=N)N)C(=O)O [CP-0388, D R--K--P--J--G--F--S--P--L] (HELM PEPTIDE1{[dR].K.P.[Hyp].G.F.S.P.L}$$$$V2.0; N-terminus and C-terminus assumed)	6.5 ± 0.1	–
CC(C)C[C@H](NC(=O)[C@@H](Cc1ccccc1)NC(=O)[C@H](CSC1CC(=O)N(CCCCCCN2C(=O)CC(SC[C@H](N)C(=O)N[C@@H](Cc3ccc(O)cc3)C(=O)N[C@H](Cc3c[nH]c4ccccc34)C(=O)N[C@H](C(=O)N[C@H](Cc3c[nH]c4ccccc34)C(=O)N[C@H](Cc3c[nH]c4ccccc34)C(=O)N[C@@H](CCCNC(=N)N)C(N)=O)C(C)C)C2=O)C1=O)NC(=O)[C@H](Cc1ccccc1)NC(=O)CNC(=O)[C@@H]1C[C@@H](O)CN1C(=O)[C@@H]1CCCN1C(=O)[C@H](CCCNC(=N)N)NC(=O)[C@H](N)CCCNC(=N)N)C(=O)N[C@@H](CCCNC(=N)N)C(=O)O (stereo partly shown) [CP-0411] (HELM PEPTIDE1{[dR].R.P.[Hyp].G.F.C.[dF].L.R}|PEPTIDE2{C.Y.[dW].V.[dW].[dW].R.[am]}|CHEM1{[O=C1CC([*:1])C(=O)N1CCCCCCN1C(=O)CC([*:2])C1=O]}$PEPTIDE1,CHEM1,7:R3-1:R1|PEPTIDE2,CHEM1,1:R3-1:R2$$$V2.0)	–	7.5 ± 0.1
CC(C)C[C@H](NC(=O)[C@@H](Cc1ccccc1)NC(=O)[C@H](CSC1CC(=O)N(CCCCCCN2C(=O)CC(SC[C@H](NC(=O)[C@@H](Cc3c[nH]c4ccccc34)NC(=O)[C@H](Cc3ccc(O)cc3)NC(=O)[C@@H](N)CC(=O)O)C(=O)N[C@H](Cc3c[nH]c4ccccc34)C(=O)N[C@H](Cc3c[nH]c4ccccc34)C(=O)N[C@@H](CCCNC(=N)N)C(N)=O)C2=O)C1=O)NC(=O)[C@H](Cc1ccccc1)NC(=O)CNC(=O)[C@@H]1C[C@@H](O)CN1C(=O)[C@@H]1CCCN1C(=O)[C@H](CCCNC(=N)N)NC(=O)[C@H](N)CCCNC(=N)N)C(=O)N[C@@H](CCCNC(=N)N)C(=O)O (stereo partly shown) [CP-0414] (HELM PEPTIDE1{[dR].R.P.[Hyp].G.F.C.[dF].L.R}|PEPTIDE2{D.Y.[dW].C.[dW].[dW].R.[am]}|CHEM1{[O=C1CC([*:1])C(=O)N1CCCCCCN1C(=O)CC([*:2])C1=O]}$PEPTIDE1,CHEM1,7:R3-1:R1|PEPTIDE2,CHEM1,4:R3-1:R2$$$V2.0)	–	7.8 ± 0.1
CC(C)C[C@H](NC(=O)[C@@H](Cc1ccccc1)NC(=O)[C@H](CSC1CC(=O)N(CCCCCCN2C(=O)CC(SC[C@H](NC(=O)[C@@H](NC(=O)[C@@H](Cc3c[nH]c4ccccc34)NC(=O)[C@H](Cc3ccc(O)cc3)NC(=O)[C@@H](N)CC(=O)O)C(C)C)C(=O)N[C@H](Cc3c[nH]c4ccccc34)C(=O)N[C@@H](CCCNC(=N)N)C(N)=O)C2=O)C1=O)NC(=O)[C@H](Cc1ccccc1)NC(=O)CNC(=O)[C@@H]1C[C@@H](O)CN1C(=O)[C@@H]1CCCN1C(=O)[C@H](CCCNC(=N)N)NC(=O)[C@H](N)CCCNC(=N)N)C(=O)N[C@@H](CCCNC(=N)N)C(=O)O (stereo partly shown) [CP-0415] (HELM PEPTIDE1{[dR].R.P.[Hyp].G.F.C.[dF].L.R}|PEPTIDE2{D.Y.[dW].V.C.[dW].R.[am]}|CHEM1{[O=C1CC([*:1])C(=O)N1CCCCCCN1C(=O)CC([*:2])C1=O]}$PEPTIDE1,CHEM1,7:R3-1:R1|PEPTIDE2,CHEM1,5:R3-1:R2$$$V2.0)	–	7.8 ± 0.1
CC(C)C[C@H](NC(=O)[C@@H](Cc1ccccc1)NC(=O)[C@H](CSC1CC(=O)N(CCCCCCN2C(=O)CC(SC[C@H](NC(=O)[C@@H](Cc3c[nH]c4ccccc34)NC(=O)[C@@H](NC(=O)[C@@H](Cc3c[nH]c4ccccc34)NC(=O)[C@H](Cc3ccc(O)cc3)NC(=O)[C@@H](N)CC(=O)O)C(C)C)C(=O)N[C@@H](CCCNC(=N)N)C(N)=O)C2=O)C1=O)NC(=O)[C@H](Cc1ccccc1)NC(=O)CNC(=O)[C@@H]1C[C@@H](O)CN1C(=O)[C@@H]1CCCN1C(=O)[C@H](CCCNC(=N)N)NC(=O)[C@H](N)CCCNC(=N)N)C(=O)N[C@@H](CCCNC(=N)N)C(=O)O (stereo partly shown) [CP-0416] (HELM PEPTIDE1{[dR].R.P.[Hyp].G.F.C.[dF].L.R}|PEPTIDE2{D.Y.[dW].V.[dW].C.R.[am]}|CHEM1{[O=C1CC([*:1])C(=O)N1CCCCCCN1C(=O)CC([*:2])C1=O]}$PEPTIDE1,CHEM1,7:R3-1:R1|PEPTIDE2,CHEM1,6:R3-1:R2$$$V2.0)	–	8.7 ± 0.2
